From PubChem BioAssay (NCI)
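Method: 48-hour compound exposure of cells in 96-well plates, five concentrations, linear interpolation of endpoints. GI50 marks 50% less growth. Definition used: TGI = concentration required for complete inhibition of growth.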

What was measured:
Assay in all cases: NCI anticancer screen, dose series, 48 h
IGROV1 ovarian = system: IGROV1 ovarian
SK-OV-3 ovarian = system: SK-OV-3 ovarian
MCF7 breast = system: MCF7 breast
SF-295 CNS = system: SF-295 CNS
RXF 393 renal = system: RXF 393 renal
CAKI-1 renal = system: CAKI-1 renal
NCI-H23 lung = system: NCI-H23 lung
U251 CNS = system: U251 CNS
T-47D breast = system: T-47D breast
A498 renal = system: A498 renal
EKVX NSCLC = system: EKVX NSCLC
HL-60(TB) leukemia = system: HL-60(TB) leukemia
UACC-62 melanoma = system: UACC-62 melanoma
TK-10 renal = system: TK-10 renal
HOP-92 NSCLC = system: HOP-92 NSCLC
NCI-H522 lung = system: NCI-H522 lung
OVCAR-3 ovarian = system: OVCAR-3 ovarian
MALME-3M melanoma = system: MALME-3M melanoma
OVCAR-4 ovarian = system: OVCAR-4 ovarian
UO-31 renal = system: UO-31 renal
M14 melanoma = system: M14 melanoma
BT-549 breast = system: BT-549 breast
LOX IMVI melanoma = system: LOX IMVI melanoma
CCRF-CEM leukemia = system: CCRF-CEM leukemia
SF-268 CNS = system: SF-268 CNS
HCT-15 colon = system: HCT-15 colon
COLO 205 colon = system: COLO 205 colon
SK-MEL-2 melanoma = system: SK-MEL-2 melanoma
HOP-62 NSCLC = system: HOP-62 NSCLC
HCT-116 colon = system: HCT-116 colon
OVCAR-5 ovarian = system: OVCAR-5 ovarian
A549 NSCLC = system: A549 NSCLC
PC-3 prostate = system: PC-3 prostate
NCI/ADR-RES ovarian = system: NCI/ADR-RES ovarian
SK-MEL-5 melanoma = system: SK-MEL-5 melanoma
SN12C renal = system: SN12C renal
K-562 leukemia = system: K-562 leukemia
SK-MEL-28 melanoma = system: SK-MEL-28 melanoma
SNB-75 CNS = system: SNB-75 CNS
HS 578T breast = system: HS 578T breast
SR leukemia = system: SR leukemia
OVCAR-8 ovarian = system: OVCAR-8 ovarian
ACHN renal = system: ACHN renal
RPMI-8226 leukemia = system: RPMI-8226 leukemia
HCC-2998 colon = system: HCC-2998 colon
DU-145 prostate = system: DU-145 prostate
UACC-257 melanoma = system: UACC-257 melanoma
SW-620 colon = system: SW-620 colon
NCI-H226 lung = system: NCI-H226 lung
KM12 colon = system: KM12 colon
NCI-H460 lung = system: NCI-H460 lung
MOLT-4 leukemia = system: MOLT-4 leukemia
HT29 colon = system: HT29 colon
MDA-MB-231 breast = system: MDA-MB-231 breast
SF-539 CNS = system: SF-539 CNS
MDA-MB-435 = system: MDA-MB-435
SNB-19 CNS = system: SNB-19 CNS

Work on `Cn1cc(-c2nn3cc(-c4ccncc4)nc3s2)c2cc(Cl)ccc21` yielded a GI50 (IGROV1 ovarian) of 2.12 µM, a TGI (IGROV1 ovarian) of 17.2 µM and a GI50 (SK-OV-3 ovarian) of 12.3 µM. For the same compound, the TGI (SK-OV-3 ovarian) was 30.6 µM, the GI50 (MCF7 breast) was 1.23 µM and the TGI (MCF7 breast) was 3.34 µM. For the same compound, the GI50 (SF-295 CNS) was 2.98 µM, the TGI (SF-295 CNS) was 8.52 µM and the GI50 (RXF 393 renal) was 3.37 µM. For the same compound, the TGI (RXF 393 renal) was 9.85 µM, the GI50 (CAKI-1 renal) was 8.31 µM and the TGI (CAKI-1 renal) was 28.6 µM. The GI50 (NCI-H23 lung) was 5.38 µM, the TGI (NCI-H23 lung) was 25.4 µM and the GI50 (U251 CNS) was 9.15 µM. The TGI (U251 CNS) was 45.4 µM, the GI50 (T-47D breast) was 3.3 µM and the TGI (T-47D breast) was 18.6 µM. For the same compound, the GI50 (A498 renal) was 9.38 µM, the TGI (A498 renal) was 23.7 µM and the GI50 (EKVX NSCLC) was 2.3 µM. The TGI (EKVX NSCLC) was 8.54 µM, the GI50 (HL-60(TB) leukemia) was 1.54 µM and the TGI (HL-60(TB) leukemia) was 3.26 µM. For the same compound, the GI50 (UACC-62 melanoma) was 11.4 µM, the TGI (UACC-62 melanoma) was 31.7 µM and the GI50 (TK-10 renal) was 14.4 µM. For the same compound, the TGI (TK-10 renal) was 30.9 µM, the GI50 (HOP-92 NSCLC) was 1.61 µM and the TGI (HOP-92 NSCLC) was 5.3 µM. For the same compound, the GI50 (NCI-H522 lung) was 2.56 µM, the TGI (NCI-H522 lung) was 10.2 µM and the GI50 (OVCAR-3 ovarian) was 5.8 µM. It also gave a TGI (OVCAR-3 ovarian) of 27.1 µM, a GI50 (MALME-3M melanoma) of 3.16 µM and a TGI (MALME-3M melanoma) of 18.3 µM. For the same compound, the GI50 (OVCAR-4 ovarian) was 5.03 µM, the TGI (OVCAR-4 ovarian) was 13.6 µM and the GI50 (UO-31 renal) was 4.03 µM. It also gave a TGI (UO-31 renal) of 22.6 µM, a GI50 (M14 melanoma) of 1.6 µM and a TGI (M14 melanoma) of 3.14 µM. The GI50 (BT-549 breast) was 3.39 µM, the TGI (BT-549 breast) was 13.3 µM and the GI50 (LOX IMVI melanoma) was 2.64 µM. It also gave a TGI (LOX IMVI melanoma) of 9.26 µM, a GI50 (CCRF-CEM leukemia) of 2.06 µM and a TGI (CCRF-CEM leukemia) of 5.4 µM. For the same compound, the GI50 (SF-268 CNS) was 6.32 µM, the TGI (SF-268 CNS) was 24.4 µM and the GI50 (HCT-15 colon) was 1.83 µM. For the same compound, the TGI (HCT-15 colon) was 3.78 µM, the GI50 (COLO 205 colon) was 3.39 µM and the TGI (COLO 205 colon) was 9.2 µM. It also gave a GI50 (SK-MEL-2 melanoma) of 5.41 µM, a TGI (SK-MEL-2 melanoma) of 14 µM and a GI50 (HOP-62 NSCLC) of 4.4 µM. For the same compound, the TGI (HOP-62 NSCLC) was over 27.8 µM, the GI50 (HCT-116 colon) was 1.76 µM and the TGI (HCT-116 colon) was 3.3 µM. For the same compound, the GI50 (OVCAR-5 ovarian) was 1.86 µM, the TGI (OVCAR-5 ovarian) was 3.85 µM and the GI50 (A549 NSCLC) was 11.2 µM. The TGI (A549 NSCLC) was 51.7 µM, the GI50 (PC-3 prostate) was 2.48 µM and the TGI (PC-3 prostate) was 7.82 µM. The GI50 (NCI/ADR-RES ovarian) was 2.7 µM, the TGI (NCI/ADR-RES ovarian) was 8.21 µM and the GI50 (SK-MEL-5 melanoma) was 3.02 µM. The TGI (SK-MEL-5 melanoma) was 8.25 µM, the GI50 (SN12C renal) was 3.72 µM and the TGI (SN12C renal) was 11.2 µM. The GI50 (K-562 leukemia) was 2.15 µM, the TGI (K-562 leukemia) was 5.3 µM and the GI50 (SK-MEL-28 melanoma) was 2 µM. For the same compound, the TGI (SK-MEL-28 melanoma) was 3.77 µM, the GI50 (SNB-75 CNS) was 6.42 µM and the TGI (SNB-75 CNS) was 24.2 µM. For the same compound, the GI50 (HS 578T breast) was 4.73 µM, the TGI (HS 578T breast) was 27.2 µM and the GI50 (SR leukemia) was 1.69 µM. It also gave a TGI (SR leukemia) of 4.61 µM, a GI50 (OVCAR-8 ovarian) of 2.36 µM and a TGI (OVCAR-8 ovarian) of 7.7 µM. The GI50 (ACHN renal) was 4.78 µM, the TGI (ACHN renal) was 25.3 µM and the GI50 (RPMI-8226 leukemia) was 2.24 µM. It also gave a TGI (RPMI-8226 leukemia) of 6.24 µM, a GI50 (HCC-2998 colon) of 3.64 µM and a TGI (HCC-2998 colon) of 10.1 µM. It also gave a GI50 (DU-145 prostate) of 6.23 µM, a TGI (DU-145 prostate) of 17.4 µM and a GI50 (UACC-257 melanoma) of 8.58 µM. For the same compound, the TGI (UACC-257 melanoma) was 25.2 µM, the GI50 (SW-620 colon) was 1.89 µM and the TGI (SW-620 colon) was 4.27 µM. For the same compound, the GI50 (NCI-H226 lung) was 4.86 µM, the TGI (NCI-H226 lung) was 26.1 µM and the GI50 (KM12 colon) was 12.5 µM. For the same compound, the TGI (KM12 colon) was 37.5 µM, the GI50 (NCI-H460 lung) was 4.6 µM and the TGI (NCI-H460 lung) was 17.5 µM. For the same compound, the GI50 (MOLT-4 leukemia) was 2.1 µM, the TGI (MOLT-4 leukemia) was 5.23 µM and the GI50 (HT29 colon) was 2.41 µM. The TGI (HT29 colon) was 7.31 µM, the GI50 (MDA-MB-231 breast) was 1.58 µM and the TGI (MDA-MB-231 breast) was 3.24 µM. It also gave a GI50 (SF-539 CNS) of 4.67 µM, a TGI (SF-539 CNS) of 10.2 µM and a GI50 (MDA-MB-435) of 2.84 µM. It also gave a TGI (MDA-MB-435) of 8.7 µM, a GI50 (SNB-19 CNS) of 7.98 µM and a TGI (SNB-19 CNS) of 32.7 µM.
